Data from US12151991B2, “Use of a substituted thiazolidine compound as nitrification inhibitor” (BASF SE, priority 2018, dated 2024).

Tested on: nitrification
Assay: Inhibition of nitrification in soil incubation test (ammonium and nitrate content after 14 days)
Conditions: 100 g soil, 10 mg ammonium sulfate-N, 20° C., 0 and 14 days; for NI* @ 0.3%: compound at 0.3% (of nitrogen N); for NI* @ 1%: compound at 1% (of nitrogen N); for NI* @ 3%: compound at 3% (of nitrogen N)
Procedure: The compounds of the invention have been tested as follows in terms of the inhibition of nitrification:
100 g soil is filled into 500 ml plastic bottles (e.g. soil sampled from the field) and is moistened to 50% water holding capacity. The soil is incubated at 20° C. for two weeks to activate the microbial biomass. 1 ml test solution, containing the compound in the appropriate concentration (usually 0.3 or 1% of nitrogen N), or DMSO and 10 mg nitrogen in the form of ammonium sulfate-N is added to the soil and everything mixed well. Bottles are capped but loosely to allow air exchange. The bottles are then incubated at 20° C. for 0 and 14 days.
For analysis, 300 ml of a 1% K2SO4-solution is added to the bottle containing the soil and shaken for 2 hours in a horizontal shaker at 150 rpm. Then the whole solution is filtered through a filter (Macherey-Nagel Filter MN 807%). Ammonium and nitrate content is then analyzed in the filtrate in an autoanalyzer at 550 nm (Merck, AA11).
The inhibition (NI @ a specified concentration) is calculated as follows: […]

Row | Compound | NI* @ 0.3% | NI* @ 1% | NI* @ 3%
1 | COc1ccc(C(=O)N2CCSC2=S)cc1 [Cmpd. 7, 3-(4-Methoxybenzoyl)-2-thiazolidinethione] | 19.8 | 27.5 | 57.4
2 | O=C(c1ccc(Cl)cc1)N1CCSC1=S [Cmpd. 5, 3-(4-Chlorobenzoyl)-2-thiazolidinethione] | – | 30.7 | 67
3 | O=C(c1ccccc1)N1CCSC1=S [Cmpd. 10, 3-Benzoyl-2-thiazolidinethione] | – | – | 48.4
4 | CN1CCSC1=S [Cmpd. 11, 3-Methyl-2-thiazolidinethione] | – | – | 39.9
5 | COc1ccc(C(=O)N2CCSC2=S)cc1OC [Cmpd. 8, 3-(3,4-Dimethoxybenzoyl)-2-thiazolidinethione] | – | – | 55
6 | CC1(C)CSC(=S)N1 [Cmpd. 6, 4,4-Dimethyl-2-thiazolidinethione] | – | – | 57.5
7 | CC(=O)N1CCSC1=S [Cmpd. 4, 3-Acetylthiazolidine-2-thione] | – | 32.3 | 68.7
8 | S=C1NCCS1 [Cmpd. 1, 1,3-Thiazolidine-2-thione] | – | 47 | 83.5
9 | O=C(Cc1ccccc1)N1CCSC1=S [Cmpd. 3, 3-(Phenylacetyl)-2-thiazolidinethione] | 26.6 | 55.3 | 71.1
10 | COc1cccc(C(=O)N2CCSC2=S)c1 [Cmpd. 2, 3-(3-Methoxybenzoyl)-2-thiazolidinethione] | 34.8 | 73.1 | 67.9
11 | Cc1c(C(=O)N2CCSC2=S)oc2ccccc12 [Cmpd. 12, 3-[(3-Methyl-2-benzofuranyl)carbonyl]-2-thiazolidinethione] | – | – | 39
12 | O=C(c1cccc(Br)c1)N1CCSC1=S [Cmpd. 9, 3-(3-Bromobenzoyl)-2-thiazolidinethione] | – | – | 49
